The values that follow come from article PMC12765074, “Mechanistic insights into enterocin C targeting the undecaprenyl phosphate recycling protein BacA” (The Journal of Biological Chemistry, 2025).

“Also recorded” adds a separate entry of the source.

One may read the Kd as the equilibrium constant for the complex coming apart. Usually stoichiometry N stands for a count of units in the complex or per binding partner. For orientation: IC50 means the concentration that inhibits the measured activity by half.

In assay [1] the target is T1, BacAef (Enterococcus faecalis, UniProt A0ACD6TE02). Type of assay: biochemical.
The subject of assay [2] is E. faecalis (V583-derivative strain, WT). Type of assay: cell-based, Enterococcus faecalis. The conditions noted are these: 6 μl droplets on a lawn of E. faecalis, BHI 0.75% agar, overnight; representative of three independent experiments.
Assay [3] has as its target T1, BacAef. Type of assay: binding. As to the method:
Thermal stability of BacA protein in different mixtures of peptides was performed by DSC on a MicroCal model VP-DSC (Malvern Panalytical, Malvern, UK). BacA (33 μM) was mixed with different mixtures of peptides at twice the BacA concentration (i.e. 66 μM). Each measurement was preceded by a baseline scan with the standard buffer. Scans were performed at 1 K/min (60 °C/h) temperature ramp between 30 °C and 100 °C. The heat capacity of the buffer was subtracted from that of the protein sample before analysis. The thermodynamic parameters were determined by fitting the data to the following equation: ΔCp(T)=Kd(T)ΔHcalΔHvH/[1+Kd(T)]^2RT^2 where Kd is the equilibrium constant for a two-state process, ΔHvH the enthalpy calculated based on a two-state process and ΔHcal the measured enthalpy.

Another assay addresses BacAef/EntC1 (Enterococcus faecalis, UniProt A0ACD6TE02+Q9L9U6). As to the kind of experiment: ITC, BacAef/EntC1 mixture. Type of assay: binding.
Assay [4] addresses T1, BacAef. The assay is described as follows: UppS-coupled C55-PP phosphatase assay in liposomes, BacAef. The conditions noted are these: liposomes. Type of assay: biochemical.
Assay [5] has as its target T1, BacAef. As to the kind of experiment: DSS crosslinking. Type of assay: binding. The following applies: BacAef and peptide 17 μM each, DSS 100- or 1000-fold excess, 30 min, 4 °C. On the procedure:
Crosslinking experiments were performed using the amine-reactive, membrane-permeable, and non-cleavable crosslinker disuccinimidyl suberate (DSS) purchased from Sigma. EntC peptides and BacA protein were mixed at equimolar concentrations (17 μM) in buffer D in the presence of an excess of DSS crosslinker (1000-fold or 100-fold) in a final reaction volume of 20 μl. The reaction was incubated for 30 min at 4°C, and any unreacted DSS was quenched with 50 mM Tris-HCl. After separation on a 12% acrylamide gel, proteins were electrotransferred onto polyvinylidene difluoride (PVDF) membrane, and BacA was detected using peroxidase-coupled anti-His tag antibody (Penta-His HRP conjugate from Qiagen, RRID: AB_3699318) by chemiluminescence detection (Western Lightning Plus-ECL, PerkinElmer) using the ChemiDoc MP system (Bio-Rad).

The target of assay [6] is T1, BacAef. As to the kind of experiment: ITC, BacAef. Type of assay: binding. The following applies: 20 °C; for -TΔS / ΔG / ΔH: into [BacAef] 33 μM.
The next assay addresses BacAef/LcnGα (Enterococcus faecalis, UniProt A0ACD6TE02). As to the kind of experiment: ITC, BacAef/LcnGα mixture. Type of assay: binding. The conditions noted are these: 20 °C.
In assay [7] the target is N-terminal His6-tagged BacA from E. faecalis (BacAef) (Enterococcus faecalis). The assay is described as follows: ITC; peptides (400 μM) in the syringe titrated into the protein, or the protein premixed with one peptide, (33 μM) in the cell; 20 °C; 20 mM Tris-HCl pH 7.4, 200 mM NaCl, 0.1% DDM; single binding site model. On the technique in general: In ITC the heat of successive injections is recorded.

For assay [8] the target is unchanged.
For assay [9] the target is unchanged. This is another data set of the same source.
The target is the same in assay [10]. As to the kind of experiment: ITC; EntC1 (400 μM) in the syringe titrated into a mixture containing BacAef and EntC2 (33 μM) in the cell; 20 °C; 20 mM Tris-HCl pH 7.4, 200 mM NaCl, 0.1% DDM.
The target is the same in assay [11]. As to the kind of experiment: cross-linking; DSS (100- or 1000-fold excess), peptides and BacA at equimolar 17 μM in buffer D (20 mM HEPES pH 7.5, 0.2 M NaCl, 10% glycerol, 0.1% DDM), 30 min at 4 °C, quenched with 50 mM Tris-HCl; SDS-PAGE and anti-His blot of BacA.
For assay [12], the target named is BacAef + LcnGα mixture (Enterococcus faecalis | Lactococcus lactis). As to the kind of experiment: ITC; peptides (400 μM) in the syringe titrated into the protein, or the protein premixed with one peptide, (33 μM) in the cell; 20 °C; 20 mM Tris-HCl pH 7.4, 200 mM NaCl, 0.1% DDM; single binding site model.
For assay [13], the target named is N-terminal His6-tagged BacA from E. faecalis (BacAef) (Enterococcus faecalis). The source holds these as a separate data set.
The next assay relates to L. lactis IL1403. The assay is described as follows: spot-on-lawn antibacterial assay, L. lactis. Type of assay: cell-based, Lactococcus lactis. The following applies: 6 μl droplets, L. lactis IL1403, M17G agar, overnight.
The next assay relates to L. lactis strains. The following applies: ref [6], [7], [8], cited from earlier work.
The target in assay [14] is Fluorescein-labelled EntC1 (Enterococcus faecalis C901). As to the kind of experiment: flow-induced dispersion analysis (FIDA).
Assay [15] shares this target. As to the kind of experiment: flow-induced dispersion analysis (FIDA); as the titration without EntC2, but in the presence of 200 nM EntC2 (twice the concentration of Fluo-EntC1); 25 °C; 20 mM Tris-HCl pH 7.4, 200 mM NaCl, 0.1% DDM; 1:1 binding model.
[16] abbreviates: ITC, 20 °C, into [BacAef/EntC1].
[17] abbreviates: ITC, peptides 400 μM into [BacAef] 33 μM, 20 mM Tris-HCl pH 7.4, 200 mM NaCl, 0.1% DDM, at least triplicate.

For the molecule `CC[C@H](C)[C@H](NC(=O)CNC(=O)[C@H](CCCCN)NC(=O)[C@H](C)NC(=O)[C@H](CC(C)C)NC(=O)CNC(=O)[C@H](C)NC(=O)[C@@H](NC(=O)[C@H](Cc1ccccc1)NC(=O)[C@H](CC(=O)O)NC(=O)[C@H](Cc1ccc(O)cc1)NC(=O)[C@H](C)NC(=O)[C@@H]1CCCN1C(=O)[C@H](CCC(N)=O)NC(=O)[C@H](CC(C)C)NC(=O)[C@H](Cc1c[nH]c2ccccc12)NC(=O)[C@@H]1CCCN1C(=O)[C@H](CC(C)C)NC(=O)[C@H](Cc1c[nH]c2ccccc12)NC(=O)[C@H](CCCCN)NC(=O)CNC(=O)[C@@H]1CCCN1C(=O)CN)C(C)C)C(=O)NCC(=O)N[C@@H](CCCCN)C(=O)N[C@@H](CCC(=O)O)C(=O)NCC(=O)N[C@@H](CC(N)=O)C(=O)N[C@@H](CCCCN)C(=O)N[C@@H](CC(N)=O)C(=O)N[C@@H](CCCCN)C(=O)N[C@@H](Cc1c[nH]c2ccccc12)C(=O)N[C@@H](CCCCN)C(=O)N[C@@H](CC(N)=O)C(=O)N[C@H](C(=O)O)C(C)C` (single isomer, unassigned) [EntC2], the “inhibition of BacAef C55-PP phosphatase activity” value against BacAef [1] (DDM micelles, EntC2 up to 50 μM, pH 7.4, 37 °C, 10 min) is “no inhibition”. Also, the “antibacterial activity (spot-on-lawn), E. faecalis” value in assay [2] was “neither peptide exhibited antibacterial activity when applied individually”. Further, on BacAef [3] (EntC2 at twice the concentration of BacAef), the “DSC signal change of BacAef” value is “did not change the DSC signal”. In addition, the “affinity of second binding event relative to EntC1 binding (fold)” value on BacAef/EntC1 (EntC2 into BacAef/EntC1 versus EntC1 into BacAef) is reported as “about 10 -fold”. For the same molecule, the n at BacAef/EntC1 (ITC, 20 °C, 400 μM into [BacAef/EntC1] 33 μM) amounted to 0.95 ± 0.01; at BacAef/LcnGα (400 μM into [BacAef/LcnGα] 33 μM), 0.77 ± 0.01. The “-TΔS” value at BacAef/EntC1 (setting [16]) was 6.5 kcal/mol; at BacAef [6] (ITC), “No binding”; at BacAef/LcnGα (into [BacAef/LcnGα]) it was 10.5 kcal/mol. Besides, the figures for the ΔG on BacAef/EntC1 (setting [16]), at BacAef [6] (ITC) and on BacAef/LcnGα (into [BacAef/LcnGα]) were -10.3 kcal/mol, “No binding” and -9.0 kcal/mol, respectively. The ΔH was -16.8 kcal/mol at BacAef/EntC1 (setting [16]), “No binding” on BacAef [6] (ITC) and -19.5 kcal/mol at BacAef/LcnGα (into [BacAef/LcnGα]). In addition, the “effect on BacAef activity in liposomes” value at BacAef [4] is “no effect”. In addition, on BacAef [5], the “crosslinked complex band with BacAef (SDS-PAGE, western blot)” value is recorded as “a very faint band”. Besides, the KD entry on BacAef [6] (setting [17]) was “No binding”. Also, the “binding to BacAef (ITC, words)” value on BacAef [6] (titration on BacAef alone) is given as “No binding”.

On to `[Ca+2].[Cl-].[Cl-]` [CaCl2], for which the “restoration of BacAef activity following EDTA treatment” value at BacAef [1] (after 500 μM EDTA, pH 7.5, 0.1% DDM) is listed as “restored”.

As for `O=C(O)CN(CCN(CC(=O)O)CC(=O)O)CC(=O)O` [EDTA], at BacAef [1], the “effect on BacAef C55-PP phosphatase activity” value is reported as “inhibited its activity”.

Regarding “EntC1-LcnGβ chimera bacteriocin (EntC1 and LcnGβ together) (complex)”, in assay [7], the Kd stood at 307 nM, the dH is -19.4 kcal/mol and the stoichiometry N is 0.79.

Turning to “Enterocin C peptide EntC1 (mature, synthetic)”, in assay [8], the DSC: Tm of BacAef (33 μM) with the peptide at 66 μM (66.3°C without peptide) amounted to 73 °C and the DSC: enthalpy of denaturation ΔH of BacAef (33 μM) with the peptide at 66 μM (26.7 kcal/mol without peptide) came to 45.3 kcal/mol. Also, in assay [7], the Kd is 306 nM, the dH was -5.4 kcal/mol and the stoichiometry N is 0.6. In [9], this molecule showed an IC50 of inhibition of the C55-PP phosphatase activity of BacAef in DDM micelles of 800 nM. In assay [10], the dissociation constant Kd was 480 nM, the dH was -27.6 kcal/mol and the stoichiometry N was determined as 0.69. For the same molecule, the stoichiometry N in assay [11] was 1.

As to “Enterocin C peptide EntC2 (mature, synthetic)”, in assay [12], the dH is -19.5 kcal/mol and the stoichiometry N is 0.77.

Consider “Lactococcin G (LcnGα and LcnGβ together) (complex)”, for which, in assay [7], the dissociation constant Kd amounted to 165 nM, the dH is -20.4 kcal/mol and the stoichiometry N was 0.62. In assay [13], this molecule came in with an IC50 of inhibition of the C55-PP phosphatase activity of BacAef in vitro of 800 nM.

“Lactococcin G [LcnG, reference compound]”: the “antibacterial activity (spot-on-lawn), L. lactis” value in the assay on L. lactis IL1403 is recorded as “sensitivity to both bacteriocins”. The half-inhibitory concentration (IC50) on BacAef [1] (DDM micelles, 20 mM Tris-HCl pH 7.4, 400 μM CaCl2, 150 mM NaCl, 0.1% DDM, 50 μM [14C]C55-PP, 10 min, 37 °C, TLC, EntC vs EntC1 p-value = 0.0007, read-out: IC50, BacAef C55-PP phosphatase activity) was 800 nM. For the same molecule, the “antibacterial activity (spot-on-lawn), E. faecalis” value in assay [2] was “E. faecalis was only susceptible to EntC; also recorded: inactive against E. faecalis”. At BacAef [3] (LcnG versus EntC), the “difference in Tm between EntC and LcnG complexes with BacAef” value amounted to 6.8 °C; the “difference in ΔH between EntC and LcnG complexes with BacAef” value is listed as 7.8 kcal/mol. In addition, the membrane permeabilization result in the assay on L. lactis strains (1:1 ratio of LcnGα and LcnGβ) is on record as “membrane permeabilization to monovalent cations”. Further, the “antibacterial activity against L. lactis strains” value with L. lactis strains was “antibacterial activity at nanomolar concentrations”. In addition, at BacAef [6] (ITC), the “-TΔS” value was 11.3 kcal/mol, the ΔG is -9.1 kcal/mol and the ΔH is -20.4 kcal/mol. At BacAef [6] (setting [17]), this molecule showed a Kd of 165 ± 19 nM. Further, the n on BacAef [6] (ITC, peptides 400 μM into [BacAef] 33 μM, pH 7.4, 0.1% DDM, at least triplicate) worked out at 0.62 ± 0.01.

For the molecule “N-terminal His6-tagged BacA from E. faecalis (BacAef) (enzyme)”, the dissociation constant Kd turned out to be 96 nM in [14] and 86 nM in [15]. Besides, the stoichiometry N in assay [11] turned out to be 2.
